molecular target: V1 receptor (Rattus norvegicus, UniProt P30560); assay: biochemical; format: binding; conditions: not given
Sequence (P30560 whole entry): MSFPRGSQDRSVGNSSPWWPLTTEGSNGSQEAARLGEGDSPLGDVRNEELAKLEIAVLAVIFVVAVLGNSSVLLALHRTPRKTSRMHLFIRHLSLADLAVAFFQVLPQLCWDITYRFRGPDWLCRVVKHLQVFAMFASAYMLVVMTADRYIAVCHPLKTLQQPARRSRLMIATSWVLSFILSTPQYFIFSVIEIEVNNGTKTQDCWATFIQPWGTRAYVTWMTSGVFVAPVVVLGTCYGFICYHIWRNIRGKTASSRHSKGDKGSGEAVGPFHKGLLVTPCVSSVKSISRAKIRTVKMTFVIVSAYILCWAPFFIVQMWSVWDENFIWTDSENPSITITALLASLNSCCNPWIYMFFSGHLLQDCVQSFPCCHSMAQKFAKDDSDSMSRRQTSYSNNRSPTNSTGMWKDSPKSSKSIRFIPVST

Row | Structure (SMILES) | IC50
1 | O=C1CCc2ccccc2N1C1CCN(C(=O)C23CC4CC(CC(C4)C2)C3)CC1 [Example 83, 1-(1-Tricyclo[3.3.1.1^3,7]decanylcarbonyl-4-piperidinyl)-3,4-dihydrocarbostyril] | 500 nM
2 | O=C(NCCCC[C@H](NC(=O)OCc1ccccc1)C(=O)NCCCOc1ccc(C(=O)N2CCC(N3C(=O)CCc4ccccc43)CC2)cc1)OCc1ccccc1 [Example 222, 1-[1-{4-[3-(S)-{N,N'76434 -Di(benzyloxycarbonyl)lysyl)aminopropoxy]benzoyl}-4-piperidinyl]-3,4-dihydrocarbostyril] | 650 nM
3 | O=C(CCCCCOc1ccc(C(=O)N2CCC(N3C(=O)CCc4ccccc43)CC2)cc1)c1nc2cnccc2[nH]1 [Example 154, 1-{1-[4-(5-(Imidazo[4,5-c]pyridine-2-yl)carbonylpentyloxy)benzoyl]-4-piperidinyl}-3,4-dihydrocarbostyril] | 200 nM
4 | COc1ccc(C(=O)N2CCC(N3C(=O)CCc4ccccc43)CC2)c(OCCO)c1 [Example 68, 1-{1-[2-(2-Hydroxyethoxy)-4-methoxybenzoyl]-4-piperidinyl}-3,4-dihydrocarbostyril] | 360 nM
5 | CC(=O)N1CCC(C(=O)NCCCCOc2ccc(C(=O)N3CCC(N4C(=O)CCc5ccccc54)CC3)cc2)CC1 [Example 232, 1-{1-(4-[4-(1-Acetyl-4-piperidinylcarbonylamino)butoxy]benzoyl)-4-piperidinyl)-3,4-dihydrocarbostyril] | 120 nM
6 | CCOc1ccc(C(=O)N2CCC(N3C(=O)CCc4c(F)cc(F)cc43)CC2)c(OC)c1 [Example 139, 5,7-Difluoro-1-[1-(2-methoxy-4-ethoxybenzoyl)-4-piperidinyl]-3,4-dihydrocarbostyril] | 51 nM
7 | CC(=O)N1CCN(CCCCOc2ccc(C(=O)N3CCC(N4C(=O)CCc5ccccc54)CC3)cc2)CC1 [Example 162, 1-{1-[4-[4-(4-Acetyl-1-piperazinyl)butoxy]benzoyl]-4-piperidinyl}-3,4-dihydrocarbostyril] | 110 nM
8 | O=C(c1ccc(OCCCNCc2ccccc2)cc1)N1CCC(N2C(=O)CCc3ccccc32)CC1 [Example 18, 1-{1-[4-(3-Benzylaminopropoxy)benzoyl]-4-piperidinyl}-3,4-dihydrocarbostyril] | 270 nM
9 | O=C(c1ccc(OCCCCC(O)CN2CCCC2)cc1)N1CCC(N2C(=O)CCc3ccccc32)CC1 (stereo not shown) [Example 202, 1-{1-[4-(5-Hydroxy-6-(1-pyrrolidinyl)hexyloxy)benzoyl]-4-piperidinyl}-3,4-dihydrocarbostyril] | 27 nM
10 | O=C(c1ccc(OCCCCCSc2ncccn2)cc1)N1CCC(N2C(=O)CCc3ccccc32)CC1 [Example 279, 1-{1-(4-[5-(2-Pyrimidylthio)pentyloxy]benzoyl)-4-piperidinyl}-3,4-dihydrocarbostyril] | 180 nM
11 | C=CCOc1ccc(C(=O)N2CCC(N3C(=O)CCc4ccccc43)CC2)cc1 [Example 44, 1-[1-(4-Allyloxybenzoyl)-4-piperidinyl]-3,4-dihydrocarbostyril] | 300 nM
12 | C=CCN1CCN(C(=O)CCCCCOc2ccc(C(=O)N3CCC(N4C(=O)CCc5ccccc54)CC3)cc2)CC1 [Example 273, 1-{1-(4-[5-(4-Allyl-1-piperazinylcarbonyl)pentyloxy]benzoyl)-4-piperidinyl}-3,4-dihydrocarbostyril] | 57 nM
13 | C=CCN1CCN(CCCCOc2ccc(C(=O)N3CCC(N4C(=O)CCc5ccccc54)CC3)cc2)CC1 [Example 227, 1-{1-(4-[4-(4-Allyl-1-piperazinyl)butoxy]benzoyl)-4-piperidinyl)-3,4-dihydrocarbostyril] | 130 nM
14 | COc1cc(OCCCCC(=O)N2CCS(=O)(=O)CC2)ccc1C(=O)N1CCC(N2C(=O)CCc3ccccc32)CC1 [Example 296, 1-{1-(2-Methoxy-4-[4-(4,4-dioxothiomorpholino)carbonylbutyloxy]benzoyl]-4-piperidinyl}-3,4-dihydrocarbostyril] | 73 nM
15 | COc1cc(OCCCCC(=O)N2CCSCC2)ccc1C(=O)N1CCC(N2C(=O)CCc3ccccc32)CC1 [Example 293, 1-{1-[2-Methoxy-4-(4-thiomorpholinocarbonylbutyloxy)benzoyl]-4-piperidinyl}-3,4-dihydrocarbostyril] | 220 nM
16 | Nc1ccc(C(=O)NCCCCCOc2ccc(C(=O)N3CCC(N4C(=O)CCc5ccccc54)CC3)cc2)cc1 [Example 262, 1-{1-(4-[5-(4-Aminobenzoyl)aminopentyloxy]benzoyl)-4-piperidinyl}-3,4-dihydrocarbostyril] | 93 nM
17 | CSCCC(NC(C)=O)C(=O)NCCCOc1ccc(C(=O)N2CCC(N3C(=O)CCc4ccccc43)CC2)cc1 (stereo not shown) [Example 207, 1-(1-[4-(3-(2-Acetylamino-4-methylthiobutyrylamino)propoxy)benzoyl]-4-piperidinyl}-3,4-dihydrocarbostyril] | 70 nM
18 | COc1ccc(C(=O)N2CCC(N3C(=O)CCc4ccc(C)cc43)CC2)c(OC)c1 [Example 81, 7-Methyl-1-[1-(2,4-dimethoxybenzoyl)-4-piperidinyl]-3,4-dihydrocarbostyril] | 210 nM
19 | COc1ccc(C(=O)N2CCC(N3C(=O)CCc4ccccc43)CC2)c(O)c1 [Example 60, 1-[1-(2-Hydroxy-4-methoxybenzoyl)-4-piperidinyl]-3,4-dihydrocarbostyril] | 200 nM
20 | O=C(c1ccc(C=CCCO)cc1)N1CCC(N2C(=O)CCc3ccccc32)CC1 [Example 122, 1-{1-[4-(4-Hydroxy-1-butenyl)benzoyl]-4-piperidinyl}-3,4-dihydrocarbostyril] | 710 nM
21 | CCN(CC)CC(O)COCCCCCOc1ccc(C(=O)N2CCC(N3C(=O)CCc4ccccc43)CC2)cc1 (stereo not shown) [Example 190, 1-{1-[4-(5-(2-Hydroxy-3-diethylaminopropoxy)pentyloxy)benzoyl]-4-piperidinyl}-3,4-dihydrocarbostyril] | 33 nM
22 | COc1ccc(C(=O)N2CCC(N3C(=O)CCc4ccccc43)CC2)c(OCCOC(C)=O)c1 [Example 69, 1-{1-[2-(2-Acetoxyethoxy)-4-methoxybenzoyl]-4-piperidinyl}-3,4-dihydrocarbostyril] | 420 nM
23 | NCC(O)CCCCOc1ccc(C(=O)N2CCC(N3C(=O)CCc4ccccc43)CC2)cc1 (stereo not shown) [Example 171, 1-{1-[4-(5-Hydroxy-6-aminohexyloxy)benzoyl]-4-piperidinyl}-3,4-dihydrocarbostyril] | 240 nM
24 | COC(=O)N1CCN(CCCCOc2ccc(C(=O)N3CCC(N4C(=O)CCc5ccccc54)CC3)cc2)CC1 [Example 160, 1-{1-[4-[4-(4-Methoxycarbonyl-1-piperazinyl)butoxy]benzoyl]-4-piperidinyl}-3,4-dihydrocarbostyril] | 220 nM

same assay, conditions: [H]3-Arg-vasopressin 2×10^-10 M, rat liver plasma membrane, 37° C., 10 minutes, pH 8.0

Row | Structure (SMILES) | IC50
25 | COc1ccc(C(=O)N2CCC(N3C(=O)CCc4ccccc43)C(C)C2)c(OC)c1 (stereo not shown) [Example 118, 1-[3-Methyl-1-(2,4-dimethoxycarbonyl)-4-piperidinyl]-3,4-dihydrocarbostyril] | 260 nM
26 | O=C(c1ccc(OCCCCCn2cncn2)cc1)N1CCC(N2C(=O)CCc3ccccc32)CC1 [Example 237] | 75 nM

same assay, conditions: [H]3-Arg-vasopressin 2×10^-10 M, rat liver plasma membrane, 37° C., 10 minutes, pH 8.0; read-out: IC50

Row | IC50 | Structure (SMILES)
27 | 7100 nM | COc1cc(SC)ccc1C(=O)N1CCC(N2C(=O)CCc3ccccc32)C1 (stereo not shown) [Example 84, 1-[1-(2-Methoxy-4-methylthiobenzoyl)-3-pyrrolidinyl]-3,4-dihydrocarbostyril]

same assay, conditions: read-out: IC50

Row | Structure (SMILES) | IC50
28 | CCOc1ccc(C(=O)N2CCC(n3c(=O)ccc4c(F)cc(F)cc43)CC2)c(OC)c1 [Example 175, 5,7-Difluoro-1-[1-(2-Methoxy-4-ethoxybenzoyl)-4-piperidinyl]carbostyril] | 320 nM

— patent US5436254A, “Carbostyril derivatives” (Otsuka Pharmaceutical Company, Ltd., priority 1989, dated 1995)
